Target: T1, EGFR (Homo sapiens, UniProt P00533)
T1 construct: endogenous in cells; host or cells: A431 cells (lysate, captured with SUMO1 anti-EGFR antibody)
Assay: Biochemical EGFR Assay
Design: concentration or dose not given beside the values
Conditions: protocol P.167
Outline: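 Readout is ABTS absorbance at 410 nm after anti-phosphotyrosine and HRP-antibody detection of EGFR autophosphorylation. The kinase was immunocaptured from A431 lysate, exposed 30 min to test compound diluted 1:10 in TBS, then phosphorylated for 5 min with ATP/MnCl2 before an EDTA stop.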

T1 sequence (P00533 25-1210): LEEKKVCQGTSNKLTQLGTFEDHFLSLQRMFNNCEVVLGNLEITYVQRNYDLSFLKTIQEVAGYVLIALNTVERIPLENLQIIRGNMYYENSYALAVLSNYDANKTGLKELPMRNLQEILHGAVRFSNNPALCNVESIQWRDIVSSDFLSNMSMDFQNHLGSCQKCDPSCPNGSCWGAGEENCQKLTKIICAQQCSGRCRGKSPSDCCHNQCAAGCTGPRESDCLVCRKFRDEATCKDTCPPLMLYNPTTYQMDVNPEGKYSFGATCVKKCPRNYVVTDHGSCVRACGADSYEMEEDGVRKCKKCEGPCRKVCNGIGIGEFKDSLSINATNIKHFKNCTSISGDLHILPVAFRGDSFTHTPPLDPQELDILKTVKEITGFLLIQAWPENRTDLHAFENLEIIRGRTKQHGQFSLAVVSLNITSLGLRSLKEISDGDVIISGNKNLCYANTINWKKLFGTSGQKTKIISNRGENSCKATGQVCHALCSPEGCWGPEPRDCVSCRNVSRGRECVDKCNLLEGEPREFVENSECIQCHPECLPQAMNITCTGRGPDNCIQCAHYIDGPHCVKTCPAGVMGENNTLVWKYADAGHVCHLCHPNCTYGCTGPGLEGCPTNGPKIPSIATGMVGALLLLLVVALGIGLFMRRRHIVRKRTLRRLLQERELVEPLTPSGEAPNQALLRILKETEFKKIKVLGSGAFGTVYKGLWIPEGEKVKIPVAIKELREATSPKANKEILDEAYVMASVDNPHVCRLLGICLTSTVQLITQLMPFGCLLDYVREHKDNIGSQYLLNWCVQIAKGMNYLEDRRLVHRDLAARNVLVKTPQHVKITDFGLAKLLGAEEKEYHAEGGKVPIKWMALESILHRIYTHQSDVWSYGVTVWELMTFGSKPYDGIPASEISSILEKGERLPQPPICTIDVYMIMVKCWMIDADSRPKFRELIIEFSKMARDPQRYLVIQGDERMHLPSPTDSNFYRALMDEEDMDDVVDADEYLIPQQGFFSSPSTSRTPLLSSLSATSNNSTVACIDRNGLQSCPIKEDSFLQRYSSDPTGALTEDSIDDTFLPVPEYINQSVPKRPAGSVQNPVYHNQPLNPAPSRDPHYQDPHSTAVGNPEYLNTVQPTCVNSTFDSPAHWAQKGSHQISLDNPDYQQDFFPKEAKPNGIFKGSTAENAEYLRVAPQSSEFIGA

Row | SMILES | Biochem EGFR % Inhibition (P.167)
1 | Cc1ccc(C)c(C=C2C(=O)Nc3c(Br)cc(Br)c(C)c32)c1 [10737/H07] | 17.2%
2 | Cc1c(Br)cc(Br)c2c1C(=Cc1ccc3ccccc3c1)C(=O)N2 [10737/H08] | −36.6%
3 | Cc1c(Br)cc(Br)c2c1C(=Cc1ccc(Oc3ccccc3)cc1)C(=O)N2 [10737/H09] | −15.9%
4 | Cc1c(Br)cc(Br)c2c1C(=Cc1cccc(Oc3ccc(C(C)(C)C)cc3)c1)C(=O)N2 [10737/H10] | 0.3%
5 | Cc1c(Br)cc(Br)c2c1C(=Cc1cccc(Oc3cccc(C(F)(F)F)c3)c1)C(=O)N2 [10737/H11] | 4.5%
6 | Cc1ccc(Oc2cccc(C=C3C(=O)Nc4c(Br)cc(Br)cc43)c2)cc1 [10738/A02] | 16.7%
7 | O=C1Nc2c(Br)cc(Br)cc2C1=Cc1cccc(Oc2ccc(Cl)c(Cl)c2)c1 [10738/A03] | 40.5%
8 | COc1ccc(C=C2C(=O)Nc3c(Br)cc(Br)cc32)cc1O [10738/A04] | −17.5%
9 | O=C1Nc2c(Br)cc(Br)cc2C1=Cc1cc(O)ccc1[N+](=O)[O-] [10738/A05] | 33.6%
10 | O=C1Nc2c(Br)cc(Br)cc2C1=Cc1cccc(O)c1O [10738/A06] | 54.9%
11 | O=C1Nc2c(Br)cc(Br)cc2C1=Cc1cc(O)cc(O)c1 [10738/A07] | 4.3%
12 | O=C1Nc2c(Br)cc(Br)cc2C1=Cc1ccc(Cl)c(Cl)c1 [10738/A08] | 6.0%
13 | COc1ccccc1C=C1C(=O)Nc2c(Br)cc(Br)cc21 [10738/A09] | 17.0%
14 | CC(C)c1ccc(C=C2C(=O)Nc3c(Br)cc(Br)cc32)cc1 [10738/A10] | −0.9%
15 | CCCOc1ccc(C=C2C(=O)Nc3c(Br)cc(Br)cc32)cc1 [10738/A11] | 4.5%
16 | Cc1ccc(Oc2cccc(C=C3C(=O)Nc4ccc(I)cc43)c2)cc1 [10738/B02] | −24.4%
17 | O=C1Nc2ccc(I)cc2C1=Cc1cccc(Oc2ccc(Cl)c(Cl)c2)c1 [10738/B03] | 19.2%
18 | COc1ccc(C=C2C(=O)Nc3ccc(I)cc32)cc1O [10738/B04] | 51.2%
19 | O=C1Nc2ccc(I)cc2C1=Cc1cc(O)ccc1[N+](=O)[O-] [10738/B05] | 57.6%
20 | O=C1Nc2ccc(I)cc2C1=Cc1cccc(O)c1O [10738/B06] | 22.9%
21 | O=C1Nc2ccc(I)cc2C1=Cc1cc(O)cc(O)c1 [10738/B07] | 28.7%
22 | O=C1Nc2ccc(I)cc2C1=Cc1ccc(Cl)c(Cl)c1 [10738/B08] | 33.9%
23 | COc1ccccc1C=C1C(=O)Nc2ccc(I)cc21 [10738/B09] | 20.9%
24 | CC(C)c1ccc(C=C2C(=O)Nc3ccc(I)cc32)cc1 [10738/B10] | 37.3%
25 | CCCOc1ccc(C=C2C(=O)Nc3ccc(I)cc32)cc1 [10738/B11] | 18.0%
26 | Cc1ccc(Oc2cccc(C=C3C(=O)Nc4ccc(Br)c(C)c43)c2)cc1 [10738/C02] | −30.5%

Row | SMILES | Biochem EGFR % Inhibition (P.167)
27 | Cc1c(Br)ccc2c1C(=Cc1cccc(Oc3ccc(Cl)c(Cl)c3)c1)C(=O)N2 [10738/C03] | 8.2%
28 | COc1ccc(C=C2C(=O)Nc3ccc(Br)c(C)c32)cc1O [10738/C04] | 43.7%
29 | Cc1c(Br)ccc2c1C(=Cc1cc(O)ccc1[N+](=O)[O-])C(=O)N2 [10738/C05] | 18.4%
30 | Cc1c(Br)ccc2c1C(=Cc1cccc(O)c1O)C(=O)N2 [10738/C06] | 28.7%
31 | Cc1c(Br)ccc2c1C(=Cc1cc(O)cc(O)c1)C(=O)N2 [10738/C07] | −19.0%
32 | Cc1c(Br)ccc2c1C(=Cc1ccc(Cl)c(Cl)c1)C(=O)N2 [10738/C08] | −11.9%
33 | COc1ccccc1C=C1C(=O)Nc2ccc(Br)c(C)c21 [10738/C09] | 31.9%
34 | Cc1c(Br)ccc2c1C(=Cc1ccc(C(C)C)cc1)C(=O)N2 [10738/C10] | 5.2%
35 | CCCOc1ccc(C=C2C(=O)Nc3ccc(Br)c(C)c32)cc1 [10738/C11] | −1.1%
36 | CNS(=O)(=O)c1ccc2c(c1)C(=Cc1cccc(Oc3ccc(C)cc3)c1)C(=O)N2 [10738/D02] | 21.4%
37 | CNS(=O)(=O)c1ccc2c(c1)C(=Cc1cccc(Oc3ccc(Cl)c(Cl)c3)c1)C(=O)N2 [10738/D03] | 47.6%
38 | CNS(=O)(=O)c1ccc2c(c1)C(=Cc1ccc(OC)c(O)c1)C(=O)N2 [10738/D04] | 7.4%
39 | CNS(=O)(=O)c1ccc2c(c1)C(=Cc1cc(O)ccc1[N+](=O)[O-])C(=O)N2 [10738/D05] | 4.3%
40 | CNS(=O)(=O)c1ccc2c(c1)C(=Cc1cccc(O)c1O)C(=O)N2 [10738/D06] | 32.4%
41 | CNS(=O)(=O)c1ccc2c(c1)C(=Cc1cc(O)cc(O)c1)C(=O)N2 [10738/D07] | −8.7%
42 | CNS(=O)(=O)c1ccc2c(c1)C(=Cc1ccc(Cl)c(Cl)c1)C(=O)N2 [10738/D08] | 0.6%
43 | CNS(=O)(=O)c1ccc2c(c1)C(=Cc1ccccc1OC)C(=O)N2 [10738/D09] | 12.1%
44 | CNS(=O)(=O)c1ccc2c(c1)C(=Cc1ccc(C(C)C)cc1)C(=O)N2 [10738/D10] | −12.4%
45 | CCCOc1ccc(C=C2C(=O)Nc3ccc(S(=O)(=O)NC)cc32)cc1 [10738/D11] | −13.1%
46 | Cc1ccc(Oc2cccc(C=C3C(=O)Nc4ccc(S(=O)(=O)Nc5ccc(C(F)(F)F)cc5)cc43)c2)cc1 [10738/E02] | 56.1%
47 | O=C1Nc2ccc(S(=O)(=O)Nc3ccc(C(F)(F)F)cc3)cc2C1=Cc1cccc(Oc2ccc(Cl)c(Cl)c2)c1 [10738/E03] | 82.6%
48 | COc1ccc(C=C2C(=O)Nc3ccc(S(=O)(=O)Nc4ccc(C(F)(F)F)cc4)cc32)cc1O [10738/E04] | 13.1%
49 | O=C1Nc2ccc(S(=O)(=O)Nc3ccc(C(F)(F)F)cc3)cc2C1=Cc1cc(O)ccc1[N+](=O)[O-] [10738/E05] | 52.0%
50 | O=C1Nc2ccc(S(=O)(=O)Nc3ccc(C(F)(F)F)cc3)cc2C1=Cc1cccc(O)c1O [10738/E06] | 15.8%
51 | O=C1Nc2ccc(S(=O)(=O)Nc3ccc(C(F)(F)F)cc3)cc2C1=Cc1cc(O)cc(O)c1 [10738/E07] | 57.1%
52 | O=C1Nc2ccc(S(=O)(=O)Nc3ccc(C(F)(F)F)cc3)cc2C1=Cc1ccc(Cl)c(Cl)c1 [10738/E08] | 43.2%

Row | SMILES | Biochem EGFR % Inhibition (P.167)
53 | COc1ccccc1C=C1C(=O)Nc2ccc(S(=O)(=O)Nc3ccc(C(F)(F)F)cc3)cc21 [10738/E09] | 35.3%
54 | CC(C)c1ccc(C=C2C(=O)Nc3ccc(S(=O)(=O)Nc4ccc(C(F)(F)F)cc4)cc32)cc1 [10738/E10] | 34.1%
55 | CCCOc1ccc(C=C2C(=O)Nc3ccc(S(=O)(=O)Nc4ccc(C(F)(F)F)cc4)cc32)cc1 [10738/E11] | 15.8%
56 | Cc1ccc(Oc2cccc(C=C3C(=O)Nc4ccc(S(=O)(=O)N5CCOCC5)cc43)c2)cc1 [10738/F02] | 13.1%
57 | O=C1Nc2ccc(S(=O)(=O)N3CCOCC3)cc2C1=Cc1cccc(Oc2ccc(Cl)c(Cl)c2)c1 [10738/F03] | 45.6%
58 | COc1ccc(C=C2C(=O)Nc3ccc(S(=O)(=O)N4CCOCC4)cc32)cc1O [10738/F04] | −6.5%
59 | O=C1Nc2ccc(S(=O)(=O)N3CCOCC3)cc2C1=Cc1cc(O)ccc1[N+](=O)[O-] [10738/F05] | 51.5%
60 | O=C1Nc2ccc(S(=O)(=O)N3CCOCC3)cc2C1=Cc1cccc(O)c1O [10738/F06] | −19.5%
61 | O=C1Nc2ccc(S(=O)(=O)N3CCOCC3)cc2C1=Cc1cc(O)cc(O)c1 [10738/F07] | 9.1%
62 | O=C1Nc2ccc(S(=O)(=O)N3CCOCC3)cc2C1=Cc1ccc(Cl)c(Cl)c1 [10738/F08] | 15.5%
63 | COc1ccccc1C=C1C(=O)Nc2ccc(S(=O)(=O)N3CCOCC3)cc21 [10738/F09] | 0.1%
64 | CC(C)c1ccc(C=C2C(=O)Nc3ccc(S(=O)(=O)N4CCOCC4)cc32)cc1 [10738/F10] | −4.8%
65 | CCCOc1ccc(C=C2C(=O)Nc3ccc(S(=O)(=O)N4CCOCC4)cc32)cc1 [10738/F11] | −14.8%
66 | Cc1ccc(Oc2cccc(C=C3C(=O)Nc4ccc(CCCl)cc43)c2)cc1 [10738/G02] | 19.9%
67 | O=C1Nc2ccc(CCCl)cc2C1=Cc1cccc(Oc2ccc(Cl)c(Cl)c2)c1 [10738/G03] | 31.9%
68 | COc1ccc(C=C2C(=O)Nc3ccc(CCCl)cc32)cc1O [10738/G04] | 12.1%
69 | O=C1Nc2ccc(CCCl)cc2C1=Cc1cc(O)ccc1[N+](=O)[O-] [10738/G05] | 27.3%
70 | O=C1Nc2ccc(CCCl)cc2C1=Cc1cccc(O)c1O [10738/G06] | −8.2%
71 | O=C1Nc2ccc(CCCl)cc2C1=Cc1cc(O)cc(O)c1 [10738/G07] | −1.9%
72 | O=C1Nc2ccc(CCCl)cc2C1=Cc1ccc(Cl)c(Cl)c1 [10738/G08] | 23.6%
73 | COc1ccccc1C=C1C(=O)Nc2ccc(CCCl)cc21 [10738/G09] | 16.7%
74 | CC(C)c1ccc(C=C2C(=O)Nc3ccc(CCCl)cc32)cc1 [10738/G10] | 26.5%
75 | CCCOc1ccc(C=C2C(=O)Nc3ccc(CCCl)cc32)cc1 [10738/G11] | 19.4%
76 | Cc1ccc(Oc2cccc(C=C3C(=O)Nc4c(Br)cc(Br)c(C)c43)c2)cc1 [10738/H02] | −52.0%
